Measurements from US6358885B1, “Substituted phenylheterocyclic herbicides” (Mississippi State University, priority 1992, dated 2002).

What was measured:
blackgrass = experiment: Test C preemergence/postemergence greenhouse plant response rating 0 to 100; format: in vivo, Alopecurus myosuroides; conditions: for Plant response rating, Blackgrass: 125 g/ha, 0 to 100 scale
In short: (§1)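 Compounds in non-phytotoxic solvent applied preemergence to sandy loam one day after planting, postemergence at the 1–4 leaf stage, or to ~2.5 cm floodwater over silt loam.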

bedstraw = experiment: as above; format: in vivo, Galium aparine; conditions: for Plant response rating, Bedstraw: 125 g/ha, 0 to 100 scale
In short: as §1

velvetleaf = experiment: Test B preemergence/postemergence greenhouse plant response rating 0 to 10; format: in vivo, Abutilon theophrasti; conditions: for Plant response rating, Velvetleaf: 0 to 10 scale
In short: (§2)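 Test chemicals, dissolved in a non-phytotoxic solvent, were applied to soil at planting and, at the same time, over foliage of seedlings at the one to four leaf stage.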

rape = experiment: Test C preemergence/postemergence greenhouse plant response rating 0 to 100; format: in vivo, Brassica napus; conditions: for Plant response rating, Rape: 125 g/ha, 0 to 100 scale
In short: as §1

wild oat = experiment: as above; format: in vivo, Avena fatua; conditions: for Plant response rating, Wild oat: 125 g/ha, 0 to 100 scale
In short: as §1

wheat [1] = experiment: Test B preemergence/postemergence greenhouse plant response rating 0 to 10; format: in vivo, Triticum aestivum; conditions: for Plant response rating, Wheat: 0 to 10 scale
In short: as §2

wheat [2] = experiment: Test C preemergence/postemergence greenhouse plant response rating 0 to 100; format: in vivo, Triticum aestivum; conditions: for Plant response rating, Wheat: 125 g/ha, 0 to 100 scale
In short: as §1

morningglory = experiment: Test B preemergence/postemergence greenhouse plant response rating 0 to 10; format: in vivo, Ipomoea hederacea; conditions: for Plant response rating, Morningglory: 0 to 10 scale
In short: as §2

barnyardgrass = experiment: as above; format: in vivo, Echinochloa crus-galli; conditions: for Plant response rating, Barnyardgrass: 0 to 10 scale
In short: as §2

crabgrass = experiment: Test C preemergence/postemergence greenhouse plant response rating 0 to 100; format: in vivo, Digitaria sanguinalis; conditions: for Plant response rating, Crabgrass: 125 g/ha, 0 to 100 scale
In short: as §1

speedwell = experiment: as above; format: in vivo, Veronica persica; conditions: for Plant response rating Speedwell: 125 g/ha, 0 to 100 scale
In short: as §1

cotton = experiment: Test B preemergence/postemergence greenhouse plant response rating 0 to 10; format: in vivo, Gossypium hirsutum; conditions: for Plant response rating, Cotton: 0 to 10 scale
In short: as §2

giant foxtail = experiment: Test C preemergence/postemergence greenhouse plant response rating 0 to 100; format: in vivo, Setaria faberii; conditions: for Plant response rating, Giant foxtail: 125 g/ha, 0 to 100 scale
In short: as §1

COCOc1cc(-c2nn3c(c2Cl)CCCC3)c(F)cc1Cl [Compound 58]
Plant response rating, Blackgrass (blackgrass; POSTEMERGENCE): 85 | Plant response rating (0 to 100), Blackgrass (blackgrass; POSTEMERGENCE, Rate 2 g/ha): 20 | Plant response rating, Blackgrass (blackgrass; PREEMERGENCE): 70 | Plant response rating (0 to 100), Blackgrass (blackgrass; PREEMERGENCE, Rate 2 g/ha): 0 | Plant response rating (0 to 100), Blackgrass (blackgrass; Rate 8 g/ha, POSTEMERGENCE): 50 | Plant response rating (0 to 100), Blackgrass (blackgrass; Rate 8 g/ha, PREEMERGENCE): 20 | Plant response rating (0 to 100), Blackgrass (blackgrass; Rate 31 g/ha, POSTEMERGENCE): 65 | Plant response rating (0 to 100), Blackgrass (blackgrass; Rate 31 g/ha, PREEMERGENCE): 60 | Plant response rating, Bedstraw (bedstraw; POSTEMERGENCE): 100 | Plant response rating (0 to 100), Bedstraw (bedstraw; POSTEMERGENCE, Rate 2 g/ha): 60 | Plant response rating, Bedstraw (bedstraw; PREEMERGENCE): 70 | Plant response rating (0 to 100), Bedstraw (bedstraw; PREEMERGENCE, Rate 2 g/ha): 0 | Plant response rating (0 to 100), Bedstraw (bedstraw; Rate 8 g/ha, POSTEMERGENCE): 100 | Plant response rating (0 to 100), Bedstraw (bedstraw; Rate 8 g/ha, PREEMERGENCE): 10 | Plant response rating (0 to 100), Bedstraw (bedstraw; Rate 31 g/ha, PREEMERGENCE): 50 | Plant response rating, Velvetleaf (velvetleaf; POSTEMERGENCE, Rate 50 g/ha): 9 | Plant response rating, Velvetleaf (velvetleaf; PREEMERGENCE, Rate 50 g/ha): 10 | Plant response rating (0 to 10 scale), Velvetleaf (velvetleaf; PREEMERGENCE, Rate 200 g/ha): 10 | Plant response rating, Velvetleaf (velvetleaf; Rate 200 g/ha, POSTEMERGENCE): 10 | Plant response rating, Rape (rape; POSTEMERGENCE): 100 | Plant response rating (0 to 100), Rape (rape; POSTEMERGENCE, Rate 2 g/ha): 30 | Plant response rating, Rape (rape; PREEMERGENCE): 70 | Plant response rating (0 to 100), Rape (rape; PREEMERGENCE, Rate 2 g/ha): 0 | Plant response rating (0 to 100), Rape (rape; Rate 8 g/ha, POSTEMERGENCE): 50 | Plant response rating (0 to 100), Rape (rape; Rate 8 g/ha, PREEMERGENCE): 0 | Plant response rating (0 to 100), Rape (rape; Rate 31 g/ha, POSTEMERGENCE): 70 | Plant response rating (0 to 100), Rape (rape; Rate 31 g/ha, PREEMERGENCE): 10 | Plant response rating, Wild oat (wild oat; POSTEMERGENCE): 75 | Plant response rating (0 to 100), Wild oat (wild oat; POSTEMERGENCE, Rate 2 g/ha): 20 | Plant response rating, Wild oat (wild oat; PREEMERGENCE): 75 | Plant response rating (0 to 100), Wild oat (wild oat; PREEMERGENCE, Rate 2 g/ha): 0 | Plant response rating (0 to 100), Wild oat (wild oat; Rate 8 g/ha, POSTEMERGENCE): 30 | Plant response rating (0 to 100), Wild oat (wild oat; Rate 8 g/ha, PREEMERGENCE): 0 | Plant response rating (0 to 100), Wild oat (wild oat; Rate 31 g/ha, POSTEMERGENCE): 50 | Plant response rating (0 to 100), Wild oat (wild oat; Rate 31 g/ha, PREEMERGENCE): 10 | Plant response rating, Wheat (wheat [1]; POSTEMERGENCE, Rate 50 g/ha): 7 | Plant response rating, Wheat (wheat [1]; PREEMERGENCE, Rate 50 g/ha): 2 | Plant response rating (0 to 10 scale), Wheat (wheat [1]; PREEMERGENCE, Rate 200 g/ha): 7 | Plant response rating, Wheat (wheat [1]; Rate 200 g/ha, POSTEMERGENCE): 8 | Plant response rating, Wheat (wheat [2]; POSTEMERGENCE): 60 | Plant response rating (0 to 100), Wheat (wheat [2]; POSTEMERGENCE, Rate 2 g/ha): 30 | Plant response rating, Wheat (wheat [2]; PREEMERGENCE): 30 | Plant response rating (0 to 100), Wheat (wheat [2]; PREEMERGENCE, Rate 2 g/ha): 0 | Plant response rating (0 to 100), Wheat (wheat [2]; Rate 8 g/ha, POSTEMERGENCE): 40 | Plant response rating (0 to 100), Wheat (wheat [2]; Rate 8 g/ha, PREEMERGENCE): 0 | Plant response rating (0 to 100), Wheat (wheat [2]; Rate 31 g/ha, POSTEMERGENCE): 50 | Plant response rating (0 to 100), Wheat (wheat [2]; Rate 31 g/ha, PREEMERGENCE): 10 | Plant response rating, Morningglory (morningglory; POSTEMERGENCE, Rate 50 g/ha): 9 | Plant response rating, Morningglory (morningglory; PREEMERGENCE, Rate 50 g/ha): 4 | Plant response rating (0 to 10 scale), Morningglory (morningglory; PREEMERGENCE, Rate 200 g/ha): 4 | Plant response rating, Morningglory (morningglory; Rate 200 g/ha, POSTEMERGENCE): 10 | Plant response rating, Barnyardgrass (barnyardgrass; POSTEMERGENCE, Rate 50 g/ha): 6 | Plant response rating, Barnyardgrass (barnyardgrass; PREEMERGENCE, Rate 50 g/ha): 4 | Plant response rating (0 to 10 scale), Barnyardgrass (barnyardgrass; PREEMERGENCE, Rate 200 g/ha): 7 | Plant response rating, Barnyardgrass (barnyardgrass; Rate 200 g/ha, POSTEMERGENCE): 9 | Plant response rating, Crabgrass (crabgrass; POSTEMERGENCE): 70 | Plant response rating (0 to 100), Crabgrass (crabgrass; POSTEMERGENCE, Rate 2 g/ha): 20 | Plant response rating, Crabgrass (crabgrass; PREEMERGENCE): 100 | Plant response rating (0 to 100), Crabgrass (crabgrass; PREEMERGENCE, Rate 2 g/ha): 0 | Plant response rating (0 to 100), Crabgrass (crabgrass; Rate 8 g/ha, POSTEMERGENCE): 30 | Plant response rating (0 to 100), Crabgrass (crabgrass; Rate 8 g/ha, PREEMERGENCE): 0 | Plant response rating (0 to 100), Crabgrass (crabgrass; Rate 31 g/ha, POSTEMERGENCE): 60 | Plant response rating (0 to 100), Crabgrass (crabgrass; Rate 31 g/ha, PREEMERGENCE): 50 | Plant response rating Speedwell (speedwell; POSTEMERGENCE): 100 | Plant response rating (0 to 100), Speedwell (speedwell; POSTEMERGENCE, Rate 2 g/ha): 40 | Plant response rating Speedwell (speedwell; PREEMERGENCE): 100 | Plant response rating (0 to 100), Speedwell (speedwell; PREEMERGENCE, Rate 2 g/ha): 0 | Plant response rating (0 to 100), Speedwell (speedwell; Rate 8 g/ha, POSTEMERGENCE): 70 | Plant response rating (0 to 100), Speedwell (speedwell; Rate 8 g/ha, PREEMERGENCE): 100 | Plant response rating (0 to 100), Speedwell (speedwell; Rate 31 g/ha, POSTEMERGENCE): 100 | Plant response rating (0 to 100), Speedwell (speedwell; Rate 31 g/ha, PREEMERGENCE): 100 | Plant response rating, Cotton (cotton; POSTEMERGENCE, Rate 50 g/ha): 10 | Plant response rating, Cotton (cotton; PREEMERGENCE, Rate 50 g/ha): 0 | Plant response rating (0 to 10 scale), Cotton (cotton; PREEMERGENCE, Rate 200 g/ha): 0 | Plant response rating, Cotton (cotton; Rate 200 g/ha, POSTEMERGENCE): 10 | Plant response rating, Giant foxtail (giant foxtail; POSTEMERGENCE): 100 | Plant response rating (0 to 100), Giant foxtail (giant foxtail; POSTEMERGENCE, Rate 2 g/ha): 20 | Plant response rating, Giant foxtail (giant foxtail; PREEMERGENCE): 100 | Plant response rating (0 to 100), Giant foxtail (giant foxtail; PREEMERGENCE, Rate 2 g/ha): 0 | Plant response rating (0 to 100), Giant foxtail (giant foxtail; Rate 8 g/ha, POSTEMERGENCE): 40 | Plant response rating (0 to 100), Giant foxtail (giant foxtail; Rate 8 g/ha, PREEMERGENCE): 0 | Plant response rating (0 to 100), Giant foxtail (giant foxtail; Rate 31 g/ha, POSTEMERGENCE): 70 | Plant response rating (0 to 100), Giant foxtail (giant foxtail; Rate 31 g/ha, PREEMERGENCE): 60
